# Assay results: patent publication US12655160B2, “KRAS G12D inhibitors” (Mirati Therapeutics, Inc., priority 2020, dated 2026)
# Structures can show the parent of a compound that is named as a salt.
# Molecular target: KRas G12D (Homo sapiens, UniProt P01116, G12D)
# Experiment: KRas G12D Binding Assay (TR-FRET displacement of labeled tracer)
# Set-up: corresponding to amino acids 1:169, produced at Array BioPharma Inc; biotin (biotinylated)
# Conditions: TR-FRET displacement of Cy5 labelled tracer, Biotinylated GDP-loaded KRAS G12D (amino acids 1:169), 60 minute incubation at 22° C.
# Method: This Example illustrates that exemplary compounds of the present invention bind to KRas G12D and are capable of displacing a labeled tracer ligand occupying the KRas G12D binding site. The ability of a compound to bind to KRAS G12D was measured using a TR-FRET displacement assay. Biotinylated GDP-loaded recombinant human KRAS G12D (corresponding to amino acids 1:169, produced at Array BioPharma Inc.) was incubated with a custom-made Cy5 labelled tracer, europium labelled streptavidin and compound (2% DMSO final) in buffer (50 mM HEPES [pH 7.5], 5 mM MgCl2, 0.005% Tween-20 & 1 mM DTT). After a 60 minute incubation at 22° C., the reaction was measured using a PerkinElmer EnVision multimode plate reader via TR-FRET dual wavelength detection, and the percent of control (POC) calculated using a ratiometric emission factor. […] The POC values were fit to a 4-parameter logistic curve and the IC50 value was determined as the concentration where the curve crosses 50 POC.
# Chain of KRas G12D (P01116 1-169 isoform P01116-2 G12D): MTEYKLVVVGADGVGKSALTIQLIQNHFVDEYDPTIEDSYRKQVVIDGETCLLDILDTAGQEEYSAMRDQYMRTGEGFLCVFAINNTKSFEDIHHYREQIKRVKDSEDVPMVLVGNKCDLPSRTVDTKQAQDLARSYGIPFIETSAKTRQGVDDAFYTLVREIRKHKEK
row,SMILES,IC50 [µM]
1,"CN(C)C1(CNc2nc(OC[C@@]34CCCN3C[C@H](F)C4)nc3c(F)c(-c4cc(O)cc5ccccc45)ncc23)CC1 [Example 6, 4-(4-(((1-(dimethylamino)cyclopropyl)methyl)amino)-8-fluoro-2-(((2R,7aS)-2-fluorotetrahydro-1H-pyrrolizin-7a(5H)-yl)methoxy)pyrido[4,3-d]pyrimidin-7-yl)naphthalen-2-bis(2,2,2-trifluoroacetate)]",0.117
2,"Cc1cccc2cccc(-c3ncc4c(NCC5(N(C)C)CCC5)nc(OC[C@@]56CCCN5C[C@H](F)C6)nc4c3F)c12 [Example 2, N-((1-(dimethylamino)cyclobutyl)methyl)-8-fluoro-2-(((2R,7aS)-2-fluorotetrahydro-1H-pyrrolizin-7a(5H)-yl)methoxy)-7-(8-methylnaphthalen-1-yl)pyrido[4,3-d]pyrimidin-4-amine bis(2,2,2-trifluoroacetate)]",0.269
3,"C[C@H]1CNC[C@@H]1Nc1nc(OCC23CCCN2CCC3)nc2c(F)c(-c3cc(O)cc4ccccc34)ncc12 [Example 19, 4-(8-fluoro-4-(((3R,4S)-4-methylpyrrolidin-3-yl)amino)-2-((tetrahydro-1H-pyrrolizin-7a(5H)-yl)methoxy)pyrido[4,3-d]pyrimidin-7-yl)naphthalen-2-ol]",0.245
4,CN(C)C1(CNc2nc(OCCc3nccn3C)nc3c(F)c(-c4cc(O)cc5ccccc45)ncc23)CCC1 [Example 31],0.857
5,"CN(C)C1(CNc2nc(OC[C@@]34CCCN3C[C@H](F)C4)nc3c(F)c(-c4cccc5cccc(C(F)(F)F)c45)ncc23)CCC1 [Example 3, N-((1-(dimethylamino)cyclobutyl)methyl)-8-fluoro-2-(((2R,7aS)-2-fluorotetrahydro-1H-pyrrolizin-7a(5H)-yl)methoxy)-7-(8-(trifluoromethyl)naphthalen-1-yl)pyrido[4,3-d]pyrimidin-4-amine]",0.239
6,"Oc1cc(-c2ncc3c(NCC4(O)CNC4)nc(OC[C@@]45CCCN4C[C@H](F)C5)nc3c2F)c2ccccc2c1 [Example 38, 3-(((8-fluoro-2-(((2R,7aS)-2-fluorotetrahydro-1H-pyrrolizin-7a(5H)-yl)methoxy)-7-(3-hydroxynaphthalen-1-yl)pyrido[4,3-d]pyrimidin-4-yl)amino)methyl)azetidin-3-ol bis(2,2,2-trifluoroacetate)]",0.389
7,"C=C(C)c1cccc2cccc(-c3ncc4c(NCC5(N(C)C)CCC5)nc(OCC56CCCN5C[C@H](F)C6)nc4c3F)c12 (mixture of isomers) [Example 24, N-((1-(dimethylamino)cyclobutyl)methyl)-8-fluoro-2-(((2S,7aR)-2-fluorotetrahydro-1H-pyrrolizin-7a(5H)-yl)methoxy)-7-(8-(prop-1-en-2-yl)naphthalen-1-yl)pyrido[4,3-d]pyrimidin-4-amine]",0.954
8,"CCc1cccc2cc(O)cc(-c3ncc4c(NCC5(N(C)C)CCC5)nc(OC[C@@]56CCCN5C[C@H](F)C6)nc4c3F)c12 [Example 33, 4-(4-(((1-(dimethylamino)cyclobutyl)methyl)amino)-8-fluoro-2-(((2R,7aS)-2-fluorotetrahydro-1H-pyrrolizin-7a(5H)-yl)methoxy)pyrido[4,3-d]pyrimidin-7-yl)-5-ethylnaphthalen-2-ol dihydrochloride]",0.0009
9,"Cc1cc2[nH]ncc2c(-c2ncc3c(NCC4(N(C)C)CCC4)nc(OC[C@@]45CCCN4C[C@H](F)C5)nc3c2F)c1Cl [Example 12, 7-(5-chloro-6-methyl-1H-indazol-4-yl)-N-((1-(dimethylamino)cyclobutyl)methyl)-8-fluoro-2-(((2R,7aS)-2-fluorotetrahydro-1H-pyrrolizin-7a(5H)-yl)methoxy)pyrido[4,3-d]pyrimidin-4-amine bis(2,2,2-trifluoroacetate)]",0.1
10,"CCc1c(F)ccc2cccc(-c3ncc4c(NCC5(N(C)C)CCC5)nc(OCC56CCCN5CCC6)nc4c3F)c12 [Example 35, N-((1-(dimethylamino)cyclobutyl)methyl)-7-(8-ethyl-7-fluoronaphthalen-1-yl)-8-fluoro-2-((tetrahydro-1H-pyrrolizin-7a(5H)-yl)methoxy)pyrido[4,3-d]pyrimidin-4-amine bis(2,2,2-trifluoroacetate)]",0.0304
11,"CC(C)c1ccccc1-c1ncc2c(NCC3(N(C)C)CCC3)nc(OCC34CCCN3CCC4)nc2c1F [Example 9, N-((1-(dimethylamino)cyclobutyl)methyl)-8-fluoro-7-(2-isopropylphenyl)-2-((tetrahydro-1H-pyrrolizin-7a(5H)-yl)methoxy)pyrido[4,3-d]pyrimidin-4-amine bis(2,2,2-trifluoroacetate)]",2.17
12,"CC#Cc1cccc2cccc(-c3ncc4c(NCC5(N(C)C)CCC5)nc(OC[C@@]56CCCN5C[C@H](F)C6)nc4c3F)c12 [Example 27, N-((1-(dimethylamino)cyclobutyl)methyl)-8-fluoro-2-(((2R,7aS)-2-fluorotetrahydro-1H-pyrrolizin-7a(5H)-yl)methoxy)-7-(8-(prop-1-yn-1-yl)naphthalen-1-yl)pyrido[4,3-d]pyrimidin-4-amine]",1.88

# Now from value to molecule:
row,IC50 [µM],SMILES
1,9.09,"CN(CC1(N(C)C)CCC1)c1nc(OCC23CCCN2CCC3)nc2c(F)c(-c3cccc4cccc(F)c34)ncc12 [Example 58, N-((1-(dimethylamino)cyclobutyl)methyl)-8-fluoro-7-(8-fluoronaphthalen-1-yl)-2-((hexahydro-1H-pyrrolizin-7a-yl)methoxy)-N-methylpyrido[4,3-d]pyrimidin-4-amine]"
2,2.12,"NC1(CNc2nc(OCC34CCCN3CCC4)nc3c(F)c(-c4cccc5cccc(F)c45)ncc23)CCC1 [Example 60, N-((1-aminocyclobutyl)methyl)-8-fluoro-7-(8-fluoronaphthalen-1-yl)-2-((hexahydro-1H-pyrrolizin-7a-yl)methoxy)pyrido[4,3-d]pyrimidin-4-amine]"
3,0.521,"CN(C)CCNc1nc(OC[C@@]23CCCN2C[C@H](F)C3)nc2c(F)c(-c3cc(O)cc4ccccc34)ncc12 (racemic) [Example 39, 4-(4-((2-(dimethylamino)ethyl)amino)-8-fluoro-2-(((2S,7aR)-2-fluorotetrahydro-1H-pyrrolizin-7a(5H)-yl)methoxy)pyrido[4,3-d]pyrimidin-7-yl)naphthalen-2-ol bis(2,2,2-trifluoroacetate)]"
4,0.513,"CC(C)c1c(Cl)cccc1-c1ncc2c(NCC3(N(C)C)CCC3)nc(OCC34CCCN3CCC4)nc2c1F [Example 47, 7-(3-chloro-2-isopropylphenyl)-N-((1-(dimethylamino)cyclobutyl)methyl)-8-fluoro-2-((tetrahydro-1H-pyrrolizin-7a(5H)-yl)methoxy)pyrido[4,3-d]pyrimidin-4-amine]"
5,0.48,"CN(C)C1(CNc2nc(OCC34CCCN3CCC4)nc3c(F)c(-c4cccc5cccc(F)c45)ncc23)CCCC1 [Example 61, N-((1-(dimethylamino)cyclopentyl)methyl)-8-fluoro-7-(8-fluoronaphthalen-1-yl)-2-((hexahydro-1H-pyrrolizin-7a-yl)methoxy)pyrido[4,3-d]pyrimidin-4-amine]"
6,0.203,"NC1CC(Nc2nc(OCC34CCCN3CCC4)nc3c(F)c(-c4cccc5cccc(F)c45)ncc23)C12CCC2 (stereo not drawn) [Example 62, N^1-(8-fluoro-7-(8-fluoronaphthalen-1-yl)-2-((hexahydro-1H-pyrrolizin-7a-yl)methoxy)pyrido[4,3-d]pyrimidin-4-yl)spiro[3.3]heptane-1,3-diamine]"
